Measurements published in patent publication US20240125768A1, “METHODS FOR MODULATING A SRC-1 CONDENSATE” (ETERN BIOPHARMA (SHANGHAI) CO., LTD., priority 2021, published 2024).

How the values were obtained:
H3K27ac [1] = test: Immunofluorescence of H3K27ac at TEAD puncta in H1299 cells; format: cell-based; conditions: H1299 cells co-expressing YAP5SA, TEAD4-mTagBFP, mNeoGreen-SRC1; 20 μM
Method: (§1) FIG. 7 M illustrates immunofluorescence staining with anti-H3K27ac (red,top) and anti-RNA pol II-S5P (red, bottom) in H1299 cells co-expressing YAP5SA, TEAD4-mTagBFP(blue) and mNeoGreen-SRC1(green) treated with 20 μM EVG. EVG impaired the SRC-1 LLPS. Transcription active markerH3K27ac and active RNA polymerase II phosphorylated at Ser 5 of CTD were not enriched in SRC-1 condensates. Scale bar, 5 μm.
(§2) Cells were fixed with 4% PFA for 15 minutes at room temperature. Cells were subsequently washed with PBS (3×3 min) and blocked in PBS/BSA (3%)/Triton X-100 (0.3%) at room temperature for 60 minutes. Cells were rinsed in PBS and incubated with anti-H3K27ac (ab4729, Abcam, 1:100), anti-RNA Pol II-S5P antibody (#04-1572, Millipore, 1:200) in PBS/BSA (1%) overnight at 4° C. Cells were washed with PBST (1×PBS+Tween20 0.2%, 3×5 min) and incubated with the secondary antibody for 1 hours at room temperature. After washing with PBST(3×5 min), cells were stained with DAPI.

H3K27ac [2] = test: ChIP-qPCR of histone modifications at YAP target regions; format: cell-based, human; conditions: SF268 cells
Method: FIG. 7L illustrates analysis of indicated histone modifications at YAP targets regions #1 from SF268 cells treated with DMSO or EVG by ChIP-qPCR. Error bars show mean±s.e.m. (n=3), *p<0.05, ***p<0.001
Briefly, cells were crosslinked with 1% formaldehyde (Sigma) in culture medium for 10 min at room temperature, and chromatin from lysed nuclei was sheared to 200-1000 bp fragments using a Bioruptor® Pico (Diagenode SA). ˜50 μg of sheared chromatin and ˜2 μg of antibody were mixed. Antibody/antigen complexes were recovered with ProteinG-Dynabeads (Invitrogen) for 1.5 h at 4° C. Quantitative real-time PCR was carried out with QuantStudio™ 6 Flex Real-Time PCR Systems (Thermofisher Scientific). The amount of immunoprecipitated DNA in each sample was determined as the fraction of the input, and normalized to the IgG control. PCR Primers are listed in Supplementary Table S2.
Chromatin immunoprecipitation antibodies are listed in Supplementary […] Supplementary Methods. […] Quantitative real-time PCR was carried out with QuantStudio™ 6 Flex Real-Time PCR Systems (Thermofisher Scientific). The amount of immunoprecipitated DNA in each sample was determined as the fraction of the input, and normalized to the IgG control.

YAP target genes = test: RNA-seq global gene expression profiles in SF268 cells; format: cell-based, human; conditions: 20 μM, 24 h
Method: FIG. 7E illustrates SF268 cells treated with EVG were subjected to RNA-seq analysis. GSEA enrichment plots of genes involved in Hippo/YAP signaling.
Total RNA of three biological replicates was extracted from SF268 cells 24 h after treated with 20 μM EVG/DMSO using TRIzol™ Reagent (15596018, Invitrogen). RNAseq libraries were prepared using the Illumina TruSeq RNA Sample Prep kit v2 and sequenced using the Illumina HiSeq Xten platform (150-bp paired-end reads). We mapped the RNA-seq sequencing reads to the human reference transcriptome (GRCh37.71) using HISAT259 version 2.0.1. Differentially expressed genes in elvitegravir-treatment group were identified with the R package DESeq.

YAP = test: Western blotting / YAP phostag immunoblotting in SF268 cells; format: cell-based, human; conditions: 20 μM
Method: FIG. 7F illustrates SF268 cells were treated with 20 μM elvitegravir (EVG) or […] (PC) for the indicated times and subjected to western blotting analysis.
FIG. 7G illustrates SF268 cells treated with EVG or PC (fedratinib—an inhibitor of the non-receptor tyrosine kinase JAK2 which affects YAP nuclear translocation and phosphorylation) were examined by YAP phostag immunoblotting.

[3] = system: RNA polymerase II phosphorylated at Ser 5 (CTD); test: Immunofluorescence of RNA pol II-S5P at TEAD puncta in H1299 cells; format: cell-based; conditions: H1299 cells co-expressing YAP5SA, TEAD4-mTagBFP, mNeoGreen-SRC1; 20 μM
Method: as §1, §2

SRC-1 = test: Biolayer interferometry (BLI); format: binding; conditions: biotin labeled EVG on streptavidin biosensors, purified SRC-1 protein
Method: FIG. 7R illustrates bio-layer interferometry (BLI) assays were performed with purified SRC-1 protein and EVG. Biotin labeled EVG was immobilized on the streptavidin biosensors and dipped into wells containing increasing concentrations of SRC-1 protein.
The binding between EVG and SRC1 was examined using BLI Octet RED96 (ForteEio Inc., Menlo Park, CA). Streptavidin biosensors (ForteBio Inc.) were pre-soaked (30 min) in assay buffer (20 mM TrisHCl pH8.0, 150 mM NaCl and 1% DMSO), then coated in an assay buffer containing 100 uM EVG-biotin for 7 min. As a control, sensors were incubated in an assay buffer containing 100 uM Biocytin, followed by a 6 min wash with assay buffer containing 1% BSA and 0.1% Tween20. Indicated concentrations of truncated SRC1protein ([…], 0 μg/ml) were diluted in assay buffer containing 1% BSA/0.1% Tween20 and flowed through biosensors coated with Bio-EVG or biocytin for 5 min. A 5 min dissociation was followed. Data was analyzed using OctetRED analysis software.

binding to SRC-1 (BLI) (SRC-1): directly binds
SMILES: COc1cc2c(cc1Cc1cccc(Cl)c1F)c(=O)c(C(=O)O)cn2[C@H](CO)C(C)C [EVG, 6-[(3-chloro-2-fluorophenyl)methyl]-1-[(2S)-1-hydroxy-3-methylbutan-2-yl]-7-methoxy-4-oxoquinoline-3-carboxylic acid]
enrichment of H3K27ac at TEAD puncta (H3K27ac [1]): inhibited the enrichment
H3K27ac mark levels at YAP target genes (H3K27ac [2]): reducing
YAP target genes, global gene expression profiles (YAP target genes): downregulates
phosphorylation pattern in YAP (YAP): unaffected
RNA polymerase II phosphorylated at Ser 5 (CTD) at TEAD puncta [3]: no effect
